Entries after “also recorded” stand apart in the source; their conditions may differ.
Experiments:
[1] = test system: bacillus stearothemophilus spores; assay: Spore studies in NO and NO2 (BI disks in TYVEK pouches, glass vessel); assay type: cell-based; details: Exp Time 10 min
Procedure: The experiments are conducted in glass vessels in which gases can be metered in exact amounts. The tests were conducted using biological indicators made of stainless steel disks inoculated with 10^6 bacillus stearothemophilus spores. The BI disks are heat-sealed in individual TYVEK sterilization pouches and placed in a glass vessel. The vessel is filled with various mixtures of gases following specific protocols for the order and timing of gas introduction.
In one protocol, the glass vessel is evacuated to 3″ Hg absolute. Either NO or NO2, as the sterilant gas, is added in an amount that corresponds to a 5% concentration (by volume) when the vessel is completely filled with sterilant gas and diluent gas. After 5 minutes, either air or nitrogen was added to the vessel until atmospheric pressure is reached. The BI is exposed to the air or nitrogen for 10 minutes. Thereafter, the BIs, in their pouches, are removed from the vessel and taken to a microbiological hood. The biological indicators are removed from the pouches and placed in tubes with sterile tryptic soy broth, incubated at from about 55 to about 60° C., and monitored for growth.

[2] = test system: sporulated B. subtilis var. niger; assay: Sterilization of contaminated stainless steel strips with varying quantities of delivered NO; assay type: cell-based; details: 5%, 2.5% and 1% NO, five minutes, culture in LB 48 hours then plating
Text: A blood storage container (Nexell, Irvine, Calif.; Lifecell PL732 plastic tissue culture flask) is used as the sterilization chamber. Strips of stainless steel are dipped in 10^6 CFU/ml sporulated B. subtilis var. niger (as determined by ABS595 standardization curves). The strips are allowed to air dry, placed in the sterilization chamber, and then the sterilization chamber is heat sealed. The sterilization chamber is evacuated using a syringe and controlling air flow with the sterilization chamber valves. A known quantity of air is added to the vessel using a graduated syringe.
An NO-generating donor compound is placed in a 7 cc gas generation chamber. The gas generation chamber is attached to the storage container through luer lock connectors. The liquid activator, 3.0N HCl is added to the gas generation chamber and the generated gas is allowed to flow into the sterilization chamber. After a brief generation period, the gas is sealed in the sterilization chamber using a compression valve.
Varying quantities of NO gas, namely 10%, 5%, 2.5% and 1% NO, are tested for their efficacy in the sterilization chamber. The quantity (%) of NO gas generated and added to the sterilization chamber is calculated from the number of moles of NO required to be generated to result in the desired percentage of NO. […]

Bacillus subtilis [3] = assay: Pressure vessel NO sterilization of dipped stainless steel strips; assay type: cell-based, Bacillus subtillis var niger 9372; details: Five Minute Sterilization Cycle, NO gas at atmospheric pressure
Text: (§1) A glass pressure vessel is connected to a scrubbed NO gas tank source. The pressure vessel is purged five times with Argon gas to eliminate atmospheric oxygen (preventing formation of NO2•) and an additional three purges of NO are used to ensure a pure NO atmosphere and consistent results of bactericidal activity. To test the sterilization method: Bacillus subtillis var niger 9372 is used (after obtaining >80% endospore formation; a standard for ethylene oxide and autoclave test sterilization), as well as organisms commonly found on the epidermis: Staphylococcus aureus (strain 21769) and Staphylococcus epidermides (strain 21977), and the enteric organisms: Klebsiella pneumoniae (strain 21991) and Serratia marcesens (strain 21140). This particular Serratia strain has been found in previous studies to be one of the most resistant bacteria to the bactericidal effects of NO in culture. See, Raulli R et al., Recent Res Devel Microbiol 6: 177-183, 2002, the entire contents of which is incorporated by reference herein.
(§2) The organisms are cultured overnight in brain heart infusion BHI. […]
(§3) The sealed vessel is carefully opened in a laminar flow hood after all the NO had been purged with Argon. […] The samples are observed (digitally photographed) 24 hrs later, placed back in the waterbath and are measured for absorbance 72 hrs later. […]

Serratia marcesens [4] = assay: as above; assay type: cell-based, Serratia marcesens (strain 21140); details: Five Minute Sterilization Cycle, NO gas at atmospheric pressure
Text: as §1, §2, §3

[5] = test system: Staphylococcus epidermides; assay: as above; assay type: cell-based, Staphylococcus epidermides (strain 21977); details: Five Minute Sterilization Cycle, NO gas at atmospheric pressure
Text: as §1, §2, §3

Klebsiella pneumoniae = assay: as above; assay type: cell-based, Klebsiella pneumoniae (strain 21991); details: Five Minute Sterilization Cycle, NO gas at atmospheric pressure
Text: as §1, §2, §3

Staphylococcus aureus = assay: as above; assay type: cell-based, Staphylococcus aureus (strain 21769); details: Five Minute Sterilization Cycle, NO gas at atmospheric pressure
Text: as §1, §2, §3

[6] = test system: Bacillus subtilis (spore); assay: Portable system (blood storage container, diazeniumdiolate plus acidic buffer) sterilization of stainless steel strips; assay type: cell-based, B. subtilis (endosporulated); details: Fifteen Minute Sterilization Cycle; stainless steel strip
Text: (§4) Similar to Example 1, a portable system is devised using blood storage containers and other laboratory items. In this construct, a blood storage container (Nexell, Irvine, Calif.; Lifecell PL732 plastic tissue culture flask) serves as the sterilization chamber. It has multiple ports, is easily attached to tubing or other chambers, and is easily cut and heat sealed for insertion and removal of contaminated/sterilized samples. The heat seal is strong and holds well at pressure, even though 1 ATM of pressure is used experimentally. Two 60 ml syringes connected to each other and a line of tubing by a three-way stopcock are employed to mix acidic buffer in one syringe with NO-releasing diazeniumdiolate in the other syringe. The tubing is connected to the blood container/sterilization chamber.
(§5) The stopcock is turned so that the acidic buffer can be added to the syringe containing the diazeniumdiolate. The valve is immediately closed to the buffer syringe and opened to the sterilization chamber. The 300 cc sterilization chamber inflates in about 15 seconds. Experiments are performed as described above, except that the devised system is used instead of the pressure vessel.
(§6) The test organisms are cultured overnight in BHI. The cultures contained at least 10^8 CFU/ml (100-fold greater than FDA testing guidelines) based on standardized ABS595 curves for each organism. […]

Bacillus subtilis [7] = assay: as above; assay type: cell-based, B. subtilis (vegetative); details: Fifteen Minute Sterilization Cycle; stainless steel strip
Text: as §4, §5, §6

[8] = test system: Staphylococcus epidermides; assay: as above; assay type: cell-based, S. epidermides; details: Fifteen Minute Sterilization Cycle; stainless steel strip
Text: as §4, §5, §6

Serratia marcesens [9] = assay: as above; assay type: cell-based, S. marcesens; details: Fifteen Minute Sterilization Cycle; stainless steel strip
Text: as §4, §5, §6

[10] = test system: bacterial cocktail containing B. subtilis, S. marcesens, and S. epidermides; assay: Sterilization of medical materials (tubing, needle); assay type: cell-based; details: 15 min Sterilization Cycle
Procedure: In this Example, the sterilization of medically relevant materials, such as needles and plastic tubing, is tested. Teflon (⅛′ ID), polyethylene (1.77 mm ID), vinyl (0.5 mm ID) tubing and a 30 gauge disposable needle are dipped in a bacterial cocktail containing B. subtilis, S. marcesens, and S. epidermides at about 10^8 total CFU/ml The samples are placed in the sterilization chamber and sealed. In each case, the lumen (the inner open space or cavity within the tubing) of the tubing or the needle contained at least some visually confirmed inoculum. […] The controls for each material reached at least 10^6 total CFU/ml in 24 hrs as determined by ABS595 standardization curves.

cocktail of bacteria = assay: Humidity effects on live bacteria, sealed and unsealed dry samples; assay type: cell-based; details: 15 min Sterilization cycle, 1 atmosphere
Text: This Example tests several humidifying paradigms and the ability to sterilize through a gas sterilization seal pouch. A cocktail of bacteria is used, grown to about 10^8 CFU/ml and mixed in equal volume. Stainless steel strips are dipped, allowed to dry, and subject to one of three methods: A, B and C. Method A samples are wrapped in a moist Kimwipe. Method B samples are left dry. Method C samples are dried and sealed in a V. Mueller™ Dual Peel Seal Pouch, which is designed for gas and autoclave sterilizations. Samples from methods B and C are placed in the sterilization chamber with a moist Kimwipe. Placement in the chamber is done so as to insure maximal separation of the Kimwipe and the sample(s). The chamber is re-sealed carefully so as not to disturb the positioning of the samples relative to the Kimwipe. Each sample is exposed to a 15 minute sterilization cycle at 1 atmosphere, removed under sterile conditions, and the samples are placed in BHI media as described above. Experimental samples are exposed to NO gas while control samples are handled identically, except that the chamber is gassed with nitrogen. All controls reached greater than 10^6 total CFU/ml in 24 hrs as determined by ABS595 standardization curves.

[11] = test system: spores (Biological Indicator manufactured by Raven); assay: Humidity effects on spores (Raven Biological Indicator in Tyvek sachets, 300 ml glass vessels); assay type: cell-based; details: 5% nitrogen oxide, Diluent Air
Procedure: This Example illustrates the effects of humidity on the sterilization of spores using both NO and NO2/N2O4 as sterilizing gases. Tests are conducted in 300 ml glass vessels.
The vessels are allowed to stand for 30 minutes, Two Tyvek sachets, each containing a Biological Indicator manufactured by Raven (product number 3367771 3-6100ST) are placed in each vessel. The vessels are purged as follows: The vessel is evacuated to 8″Hg absolute. The Vessel is re-filled with air to atmospheric pressure. Evacuation/filling is repeated two more times. The vessel is evacuated to 8″Hg absolute. Sterilizing gases are introduced into the vessel. Compressed air (9% Relative Humidity) is added until the vessel reaches atmospheric pressure. The sachets are allowed to remain in the sterilizing environments for either five or ten 10 minutes before being removed and the BI is cultured in 4 milliliters of Tryptic Soy Broth for 14 days at 55-60° C.

[12] = test system: Bacillus stearothemophilus spores (ATCC 7953); assay: Spore studies in lumens (wire biological indicators, resistometer); assay type: cell-based; details: 5 min, 23° C., NO then air
Procedure: The ability of the nitrogen oxide gases to penetrate an inner open space or cavity within a tube (i.e., a lumen) and inactivate spores in the lumen is evaluated. The spores used are those that are most resistant to the nitrogen oxide gases.
The following configuration of lumens are tested:
(a) 17″ stainless (SS) tubes having a 2.5 mm inner diameter (I.D.), bent in “U” shape
(b) 60″ polyethylene (PE) tube having a 4.5 mm ID, coiled and in Tyvek pouch
(c) 60″ PE tube having a 4.5 mm ID and a 1.5 mm outer diameter (O.D.) PEEK tube inside, coiled and in Tyvek pouch
Wire biological indicators are inoculated with 10^6 Bacillus stearothemophilus spores (ATCC 7953), (Raven Lot 3W67583) and placed at the center point of the tube in each of these configurations. The coiled polyethylene tubes were then heat-sealed in a TYVEK sterilization pouch.
Separately, each of the lumen samples are tested. The stainless steel tube (triplicate samples: SS-1, SS-2, and SS-3), the polyethylene tube, and the polyethylene tube with the PEEK catheter were each placed in a resistometer and exposed to the following gas cycle for 5 minutes at 23° C. This gas cycle is defined as follows: […]
The sterilization chamber/resistometer is evacuated and held at vacuum for 2 minutes. NO gas is then added to the sterilization chamber until the vacuum is decreased by 1″Hg. This condition is maintained for 2 minutes. Are is then added until the chamber reaches atmospheric pressure and the condition is held for 5 minutes.

## [O]N=O [NO2, nitrogen dioxide]
[1]; 5% in Air with Humidity Chip
  spore condition (Dead/Live): Dead
[1]; 5% in N2 with Humidity Chip
  spore condition (Dead/Live): Dead

## [N]=O [NO, nitric oxide]
[2]
  killing 10^6 CFU/ml sporulated B. subtilis var. niger: effective at killing
Bacillus subtilis [3]
  trials showing no bacterial growth (Killed): 3/3 Killed
Serratia marcesens [4]
  trials showing no bacterial growth (Killed): 3/3 Killed
[5]
  trials showing no bacterial growth (Killed): 3/3 Killed
Klebsiella pneumoniae
  trials showing no bacterial growth (Killed): 3/3 Killed
Staphylococcus aureus
  trials showing no bacterial growth (Killed): 3/3 Killed
[6]
  trials Killed: 2/2
Bacillus subtilis [7]
  trials Killed: 2/2
[8]
  trials Killed: 3/3 Killed
Serratia marcesens [9]
  trials Killed: 3/3 Killed
[10]; Disposable Needle 30 gauge
  trials Killed: 2/2 Killed
[10]; Polyethylene Tubing 1.77 mm ID
  trials Killed: 2/2 Killed
[10]; Teflon Tubing 1/8′ ID
  trials Killed: 2/2 Killed
[10]; Vinyl Tubing 0.5 mm ID
  trials Killed: 2/2 Killed
Cocktail of bacteria; Method A, sample wrapped in Moist Kimwipe
  trials Killed: Killed
Cocktail of bacteria; Method B, Dry sample
  trials Killed: sterilized dry samples; also recorded: Killed
Cocktail of bacteria; Method C, Dry, Sealed in Dual Peel Seal Pouch
  trials Killed: Killed
[11]; Exposure 5 Minutes, Dry
  Spore Condition in 14 Days: Alive
[11]; Exposure 5 Minutes, Humid
  Spore Condition in 14 Days: Dead
[11]; Exposure 10 Minutes, Dry
  Spore Condition in 14 Days: Alive
[11]; Exposure 10 Minutes, Humid
  Spore Condition in 14 Days: Dead
[1]; 5% in Air with Humidity Chip
  spore condition (Dead/Live): Dead
[12]; (a) SS-1, 17″ stainless tube 2.5 mm I.D.
  spore condition (Dead/Live) after 14 days of incubation: Dead
[12]; (a) SS-2, 17″ stainless tube 2.5 mm I.D.
  spore condition (Dead/Live) after 14 days of incubation: Dead
[12]; (a) SS-3, 17″ stainless tube 2.5 mm I.D.
  spore condition (Dead/Live) after 14 days of incubation: Dead
[12]; (b) PE Sheath, 60″ polyethylene tube 4.5 mm ID in Tyvek pouch
  spore condition (Dead/Live) after 14 days of incubation: Dead
[12]; (c) PE Sheath with Catheter (PEEK tube inside) in Tyvek pouch
  spore condition (Dead/Live) after 14 days of incubation: Dead

— patent publication US9180217B2, “Sterilization system and device” (priority 2004, dated 2015)
